In US10221177B2 (HYDRA BIOSCIENCES, INC., priority 2014, dated 2019):
Several values for one entry are separate records, joined by “and”; a condition that tells them apart may be missing. Equal entries are not always repeated.

What was measured:
[1] = system: CFA-induced cold hypersensitivity of the hind paw; test: CFA-induced pain test, cold hypersensitivity (cold plate paw withdrawal latency); format: in vivo; conditions: cold plate 1° C.; for Average PWL Post-Treatment / PWL Change: 1-2 hour pre-treatment; for Average PWL Post-CFA: baseline before dosing
Experimental: Embodiments of the invention may be efficacious in the treatment of inflammatory pain. Compounds of the invention were tested by the CFA-induced pain test method. Compounds were formulated as solutions in water with various solvents and excipients including dimethyl sulfoxide (DMSO), polyethylene glycol (15)-hydroxystearate (Solutol®, Sigma-Aldrich), caprylocaproyl macrogol-8 glyceride (Labrasol®, Sigma-Aldrich), polysorbate-80 (Tween®-80, Sigma-Aldrich), and polyoxyl 35 castor oil (Cremophor® EL, BASF Corp.); or suspensions in methylcellulose as indicated in Table 3 for oral delivery. Briefly, the hind paw was sensitized to cold temperature (allodynic) by administering 0.1 mL of Complete Freund's Adjuvant (CFA) to the right hind paw. Three days later, the time taken for the animal to lift its CFA-injected paw was recorded compared to its un-injected normal left hind paw. […] To avoid tissue damage the maximum cut-off time was 5 minutes. Animals that were allodynic (average PWL to the first three pain behaviors <150 seconds for the CFA-injected hind paw: ˜≥50% difference between the normal and CFA-injected paw) were included in the study and subsequently randomized across treatment groups. The following day, the animals were dosed orally under blinded conditions. Following the 1-2 hour pre-treatment time, the post-dose PWL readings were again taken. The efficacy of the drug treatment was assessed by comparing the PWL in the drug treatment animals to those animals that receive the vehicle. P values, when indicated, indicate significance compared Vehicle.

[2] = system: formalin-induced pain behaviors in the rat; test: Formalin-induced pain test (formalin model), duration of pain behaviors; format: in vivo
Experimental: Exemplary compounds of the invention were tested in the formalin-induced pain test reported by Dubuisson et al., Pain 1977 December; 4(2):161-74 (incorporated herein by reference in its entirety). Briefly, dilute formalin (50 μL of 3% formalin) was injected into the plantar surface of the hind paw of a rat. […] The individual responsible for counting the pain behaviors in a particular study was blinded to the treatment groups.
The initial phase (Phase I: 0-5 min) is thought to have a significant component that is dependent upon direct activation of afferent fibers by formalin and functional TRPA1 (McNamara et al., 2007).
Investigators studied oral administration of compounds of the invention at the doses presented in Table 3 on pain behaviors in the formalin model in the rat. Compounds were formulated as solutions in water with various solvents and excipients including dimethyl sulfoxide (DMSO), polyethylene glycol (15)-hydroxystearate (Solutol®, Sigma-Aldrich), caprylocaproyl macrogol-8 glyceride (Labrasol®, Sigma-Aldrich), polysorbate-80 (Tween®-80, Sigma-Aldrich), and polyoxyl 35 castor oil (Cremophor® EL, BASF Corp.); or suspensions in methylcellulose as indicated in Table 3. Animals were dosed orally with the vehicle, or compounds of the invention one hour prior to intraplantar formalin. […] A decrease over Vehicle indicates a positive result. P values, when indicated, indicate significance compared Vehicle.

human TRPA1 = human TRPA1 (Homo sapiens (Human), UniProt O75762); test: In vitro inhibition of human TRPA1, whole cell patch configuration; format: cell-based; conditions: current activation 10 μM AITC, tested concentrations 320 pM to 3.2 μM, read-out: hTRPA1 IC50
Chain of human TRPA1 (O75762 whole entry, the tested form may be a part): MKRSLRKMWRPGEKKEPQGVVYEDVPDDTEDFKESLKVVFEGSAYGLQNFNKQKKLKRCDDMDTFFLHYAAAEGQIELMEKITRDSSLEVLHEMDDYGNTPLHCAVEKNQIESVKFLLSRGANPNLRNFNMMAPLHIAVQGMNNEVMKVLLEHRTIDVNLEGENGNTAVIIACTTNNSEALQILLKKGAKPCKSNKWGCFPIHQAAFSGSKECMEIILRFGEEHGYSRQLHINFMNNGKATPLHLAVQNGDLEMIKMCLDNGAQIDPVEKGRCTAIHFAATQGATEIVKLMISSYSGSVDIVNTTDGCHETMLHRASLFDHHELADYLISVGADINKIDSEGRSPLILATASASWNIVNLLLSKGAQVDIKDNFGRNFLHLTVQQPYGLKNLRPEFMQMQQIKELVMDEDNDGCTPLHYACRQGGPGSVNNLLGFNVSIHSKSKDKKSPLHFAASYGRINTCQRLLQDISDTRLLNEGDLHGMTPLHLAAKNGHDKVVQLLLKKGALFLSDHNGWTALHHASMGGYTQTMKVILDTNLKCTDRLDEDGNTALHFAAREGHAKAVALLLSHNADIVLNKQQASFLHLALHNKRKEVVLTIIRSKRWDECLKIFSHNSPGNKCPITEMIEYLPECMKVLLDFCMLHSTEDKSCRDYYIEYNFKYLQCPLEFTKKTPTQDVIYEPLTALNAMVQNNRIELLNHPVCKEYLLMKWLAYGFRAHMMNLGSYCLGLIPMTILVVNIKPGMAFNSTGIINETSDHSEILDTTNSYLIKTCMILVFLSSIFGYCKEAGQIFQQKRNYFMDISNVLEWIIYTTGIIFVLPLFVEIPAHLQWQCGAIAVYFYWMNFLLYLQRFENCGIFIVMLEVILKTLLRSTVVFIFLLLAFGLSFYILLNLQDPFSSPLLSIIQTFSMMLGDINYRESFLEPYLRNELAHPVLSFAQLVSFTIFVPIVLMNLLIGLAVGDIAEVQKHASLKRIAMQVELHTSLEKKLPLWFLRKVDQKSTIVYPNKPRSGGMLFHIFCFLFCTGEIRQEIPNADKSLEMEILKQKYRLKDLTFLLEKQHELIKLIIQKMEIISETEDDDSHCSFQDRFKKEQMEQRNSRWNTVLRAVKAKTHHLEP
Method in brief: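 Whole-cell patch clamp, bath 150 mM NaCl, 10 mM HEPES, 1 mM EGTA, 3 mM MgCl2, pH 7.4 (sometimes 2 mM CaCl2, 1 mM MgCl2). Currents recorded continuously at −60 mV or by 400 ms ramps from −40 mV holding every 4 s; inward/outward currents taken at −80/80 mV, with controlled-temperature focal perfusion.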

[3] = 1 mg/kg PO, solution in 4% DMSO, 5% Tween-80, 25% Cremophor EL, and 66% water
[4] = 3 mg/kg PO, solution in 4% DMSO, 5% Tween-80, 25% Cremophor EL, and 66% water
[5] = 10 mg/kg PO, solution in 4% DMSO, 5% Tween-80, 25% Cremophor EL, and 66% water
[6] = 30 mg/kg PO one hour prior to formalin, solution in 8% DMSO and 92% Labrasol
[7] = 1 mg/kg PO, solution in 4% DMSO, 5% Tween-80, 20% Cremophor EL, and 71% water
[8] = 3 mg/kg PO, solution in 4% DMSO, 5% Tween-80, 20% Cremophor EL, and 71% water
[9] = 10 mg/kg PO, solution in 4% DMSO, 5% Tween-80, 20% Cremophor EL, and 71% water
[10] = group 1 mg/kg PO, solution in 4% DMSO, 5% Tween-80, 20% Cremophor EL, and 71% water
[11] = group 3 mg/kg PO, solution in 4% DMSO, 5% Tween-80, 20% Cremophor EL, and 71% water
[12] = 1 mg/kg PO one hour prior to formalin, solution in 4% DMSO, 5% Tween-80, 20% Cremophor EL, 71% water
[13] = 3 mg/kg PO one hour prior to formalin, solution in 4% DMSO, 5% Tween-80, 20% Cremophor EL, 71% water
[14] = 10 mg/kg PO one hour prior to formalin, solution in 4% DMSO, 5% Tween-80, 20% Cremophor EL, 71% water
[15] = 0.3 mg/kg PO, solution in 4% DMSO, 5% Tween-80, 20% Cremophor EL, and 71% water
[16] = 0.3 mg/kg PO, suspension in 0.5% methylcellulose
[17] = 1 mg/kg PO, suspension in 0.5% methylcellulose
[18] = 3 mg/kg PO, suspension in 0.5% methylcellulose
[19] = group 0.3 mg/kg PO, solution in 4% DMSO, 5% Tween-80, 20% Cremophor EL, and 71% water
[20] = 1 mg/kg PO one hour prior to formalin, suspension in 0.5% methylcellulose
[21] = 3 mg/kg PO one hour prior to formalin, suspension in 0.5% methylcellulose
[22] = 10 mg/kg PO one hour prior to formalin, suspension in 0.5% methylcellulose
[23] = 30 mg/kg PO one hour prior to formalin, suspension in 0.5% methylcellulose

Row | Structure (SMILES) | Average PWL Post-Treatment [1, 7] | PWL Change [1, 7] [s] | Average PWL Post-Treatment [1, 8] | PWL Change [1, 8] [s] | Average PWL Post-CFA [1, 10] | Average PWL Post-CFA [1, 11] | Duration (0-2 Minutes) Average [2, 12] [s] | Duration (0-5 Minutes) Average [2, 12] [s] | Duration (0-2 Minutes) Average [2, 13] [s] | Duration (0-5 Minutes) Average [2, 13] [s] | Duration (0-2 Minutes) Average [2, 14] [s] | Duration (0-5 Minutes) Average [2, 14] [s] | Average PWL Post-Treatment [1, 15] | PWL Change [1, 15] [s] | Average PWL Post-CFA [1, 19] | other results
1 | CCC(=O)Cn1c(=O)c2c(ncn2[C@@H](C)C(=O)Nc2csc(-c3cnc(N4CC5CC5C4)nc3)n2)n(C)c1=O (some centres unmarked) [Compound 14] |  |  |  |  |  |  |  |  |  |  |  |  |  |  |  | Average PWL Post-Treatment [1, 3]: 194.8; PWL Change [1, 3]: 104.2 s; Average PWL Post-Treatment [1, 4]: 180.0; PWL Change [1, 4]: 87.6 s; Average PWL Post-Treatment [1, 5]: 237.4; PWL Change [1, 5]: 146.3 s; Average PWL Post-CFA ([1]; group 1 mg/kg PO, solution in 4% DMSO, 5% Tween-80, 25% Cremophor EL, and 66% water): 90.3; Average PWL Post-CFA ([1]; group 3 mg/kg PO, solution in 4% DMSO, 5% Tween-80, 25% Cremophor EL, and 66% water): 92.3; Average PWL Post-CFA ([1]; group 10 mg/kg PO, solution in 4% DMSO, 5% Tween-80, 25% Cremophor EL, and 66% water): 90.9; Duration (0-2 Minutes) Average [2, 6]: 34.3 s and 39.6 s; Duration (0-5 Minutes) Average [2, 6]: 123.4 s and 160.6 s
2 | CCC(=O)Cn1c(=O)c2c(ncn2[C@@H](C)C(=O)Nc2csc(-c3cnc(N4CCC[C@H]4C(F)(F)F)nc3)n2)n(C)c1=O [Compound 18, (S)-2-(3-methyl-2,6-dioxo-1-(2-oxobutyl)-2,3-dihydro-1H-purin-7(6H)-yl)-N-(2-(2-((S)-2-(trifluoromethyl)pyrrolidin-1-yl)pyrimidin-5-yl)thiazol-4-yl)propanamide] | 246.8 | 149.7 | 233.5 | 136.4 | 97.1 | 97.0 | 78.0 | 183.3 | 58.0 | 157.1 | 35.3 | 181.6 |  |  |  | Average PWL Post-Treatment [1, 9]: 256.1; PWL Change [1, 9]: 159.1 s; Average PWL Post-CFA ([1]; group 10 mg/kg PO, solution in 4% DMSO, 5% Tween-80, 20% Cremophor EL, and 71% water): 97.0
3 | Cc1cc(Cn2c(=O)c3c(ncn3[C@@H](C)C(=O)Nc3cncc(-c4cnc(C(F)(F)F)nc4)n3)n(C)c2=O)no1 [Compound 21, (S)-2-(3-methyl-1-((5-methylisoxazol-3-yl)methyl)-2,6-dioxo-2,3-dihydro-1H-purin-7(6H)-yl)-N-(6-(2-(trifluoromethyl)pyrimidin-5-yl)pyrazin-2-yl)propanamide] | 208.5 | 94.2 | 258.9 | 148.8 | 114.3 | 110.1 | 99.6 | 206.9 | 97.5 | 186.9 | 71.8 | 116.5 | 159.2 | 49.6 | 109.6 | Average PWL Post-Treatment [1, 16]: 106.4; PWL Change [1, 16]: 11.9 s; Average PWL Post-Treatment [1, 17]: 155.2; PWL Change [1, 17]: 59.8 s; Average PWL Post-Treatment [1, 18]: 236.7; PWL Change [1, 18]: 142.4 s; Average PWL Post-CFA ([1]; group 0.3 mg/kg PO, suspension in 0.5% methylcellulose): 94.5; Average PWL Post-CFA ([1]; group 1 mg/kg PO, suspension in 0.5% methylcellulose): 95.4; Average PWL Post-CFA ([1]; group 3 mg/kg PO, suspension in 0.5% methylcellulose): 94.3; IC50 (human TRPA1): 19 nM; Duration (0-2 Minutes) Average [2, 20]: 80.5 s; Duration (0-5 Minutes) Average [2, 20]: 202.5 s; Duration (0-2 Minutes) Average [2, 21]: 86.5 s; Duration (0-5 Minutes) Average [2, 21]: 190.1 s; Duration (0-2 Minutes) Average [2, 22]: 78.0 s and 92.3 s; Duration (0-5 Minutes) Average [2, 22]: 202.8 s and 163.1 s; Duration (0-2 Minutes) Average [2, 23]: 100.5 s; Duration (0-5 Minutes) Average [2, 23]: 165.4 s
4 | COCC(=O)Cn1c(=O)c2c(ncn2[C@@H](C)C(=O)Nc2csc(-c3cnc(N4CC5CC5C4)nc3)n2)n(C)c1=O (stereo partly drawn) [Compound 105, (2S)—N-(2-(2-(3-azabicyclo[3.1.0]hexan-3-yl)pyrimidin-5-yl)thiazol-4-yl)-2-(1-(3-methoxy-2-oxopropyl)-3-methyl-2,6-dioxo-2,3-dihydro-1H-purin-7(6H)-yl)propanamide] | 215.2 | 112.8 | 226.3 | 123.6 | 102.3 | 102.7 | 97.9 | 162.6 | 86.0 | 154.0 | 70.1 | 137.3 | 137.3 | 34.9 | 102.4 | 
